Tests used:
Experiment in all cases: relative viability (nuclei count vs DMSO), 5 days (fraction); higher = more cells survive
Bemcentinib + Bortezomib = compound: Nc1nc(Nc2ccc3c(c2)CC[C@@H](N2CCCC2)CC3)nn1-c1cc2c(nn1)-c1ccccc1CCC2 [Bemcentinib] + CC(C)C[C@H](NC(=O)[C@H](Cc1ccccc1)NC(=O)c1cnccn1)B(O)O [Bortezomib] (partner 0.002 µM)
Summary of the method: (§1)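 A single step with final 0.05% Triton X-100, 1% formaldehyde and 1 ug/ml Hoechst fixed the cells and stained nuclei 5 days after treatment. Lung cancer cell lines in 1536-well plates had been treated by pin tool the day after seeding with one drug alone or a fixed anchor-drug dose plus five library-drug doses (not always all listed) in √10 steps, and nuclei were counted on 4× images. Relative viability is the ratio of nuclei in treated wells to nuclei in vehicle wells, taken as the median of duplicate plates.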

Axitinib + Bortezomib = compound: CNC(=O)c1ccccc1Sc1ccc2c(/C=C/c3ccccn3)n[nH]c2c1 [Axitinib] + CC(C)C[C@H](NC(=O)[C@H](Cc1ccccc1)NC(=O)c1cnccn1)B(O)O [Bortezomib] (partner 0.002 µM)
Summary of the method: as §1

[1] = compound: CC1=CC=C(C=C1)C(=O)CN2C3=C(CCCC3)SC2=N [Pifithrin_alpha] + COc1cccc2cc(-c3nc([C@H]4CC[C@H](C(=O)O)CC4)n4ncnc(N)c34)[nH]c12 [OSI-027] (partner 0.5 µM)
Summary of the method: as §1

[2] = compound: CC1=CC=C(C=C1)C(=O)CN2C3=C(CCCC3)SC2=N [Pifithrin_alpha] + N=C(N)NC(=N)NCCc1ccccc1 [Phenformin] (partner 250 µM)
Summary of the method: as §1

Cell Line | relative viability (Bemcentinib + Bortezomib; first compound 0.04 µM) | relative viability (Bemcentinib + Bortezomib; first compound 0.1265 µM) | relative viability (Bemcentinib + Bortezomib; first compound 0.4 µM) | relative viability (Bemcentinib + Bortezomib; first compound 1.265 µM) | relative viability (Bemcentinib + Bortezomib; first compound 4 µM) | relative viability (Axitinib + Bortezomib; first compound 0.005 µM) | relative viability (Axitinib + Bortezomib; first compound 0.01581 µM) | relative viability (Axitinib + Bortezomib; first compound 0.05 µM) | relative viability (Axitinib + Bortezomib; first compound 0.1581 µM) | relative viability (Axitinib + Bortezomib; first compound 0.5 µM) | relative viability ([1]; first compound 1 µM) | relative viability ([1]; first compound 3.162 µM) | relative viability ([1]; first compound 10 µM) | relative viability ([1]; first compound 31.62 µM) | relative viability ([1]; first compound 100 µM) | relative viability ([2]; first compound 1 µM) | relative viability ([2]; first compound 3.162 µM) | relative viability ([2]; first compound 10 µM) | relative viability ([2]; first compound 31.62 µM) | relative viability ([2]; first compound 100 µM)
LXF-289 | 1.02 | 1.06 | 1.03 | 1.06 | 1.07 | 0.977 | 0.918 | 0.974 | 0.974 | 1 | 0.53 | 0.766 | 0.737 | 0.68 | 0.729 | 0.509 | 0.562 | 0.526 | 0.471 | 0.556
NCI-H23 | 1.16 | 1.14 | 1.01 | 1.17 | 1.14 | 1.06 | 1.09 | 1 | 1.03 | 1.02 | 0.627 | 0.535 | 0.446 |  | 0.535 | 0.853 | 0.734 | 0.764 |  | 0.753
NCI-H322M | 1.25 | 1.25 | 1.23 | 1.34 | 1.34 | 1.34 | 1.07 | 1.12 | 1.2 | 1.12 | 0.536 | 0.531 | 0.503 | 0.419 | 0.508 | 0.825 | 0.728 | 0.869 | 0.713 | 0.728
NCI-H441 | 0.923 | 0.689 | 0.455 | 0.407 | 0.507 | 0.626 | 0.54 | 0.444 | 0.465 | 0.443 | 0.524 | 0.662 | 0.614 |  | 0.542 | 0.893 | 0.988 | 1.15 |  | 0.994
NCI-H460 | 1.24 | 1.54 | 1.66 | 1.25 | 1.15 | 1.09 | 1.07 | 0.975 | 0.96 | 1.37 | 0.613 | 0.541 | 0.397 | 0.274 | 0.48 | 0.494 | 0.576 | 0.473 | 0.179 | 0.443
NCI-H520 | 0.517 | 0.472 | 0.711 | 0.591 | 0.61 | 0.685 | 0.698 | 0.474 | 0.5 | 0.705 | 0.297 | 0.244 | 0.259 | 0.288 | 0.25 | 0.579 | 0.554 | 0.566 |  | 0.581
NCI-H596 | 0.897 | 1.23 | 1.08 | 1.1 | 1.03 | 0.859 | 0.887 | 1.08 | 1.11 | 0.995 | 0.809 | 0.65 | 0.557 | 0.588 | 0.621 | 0.761 | 0.737 | 0.84 | 0.766 | 0.494
NCI-H647 | 1.18 | 1.14 | 1.24 | 0.811 | 1.11 | 1.04 | 1.1 | 0.94 | 1.01 | 1.08 | 0.589 | 0.757 | 0.556 | 0.517 | 0.57 | 0.58 | 0.674 | 0.548 | 0.299 | 0.4
NCI-H661 | 0.782 | 0.92 | 0.887 | 0.772 | 0.899 | 0.93 | 0.83 | 0.648 | 0.785 | 0.842 | 0.691 | 0.707 | 0.678 | 0.514 | 0.579 | 0.24 | 0.29 | 0.292 | 0.308 | 0.282
NCI-H727 | 0.691 | 1.12 | 0.918 | 0.746 | 1.1 | 1.1 | 0.854 | 1 | 0.868 | 0.795 | 0.394 | 0.577 | 0.579 |  | 0.404 | 0.604 | 0.572 | 0.538 |  | 0.501
NCI-H838 | 1.01 | 0.748 | 0.986 | 0.763 | 0.834 | 0.961 | 1.01 | 0.902 | 0.726 | 0.965 | 0.381 | 0.35 | 0.349 | 0.263 | 0.258 | 0.548 | 0.514 | 0.554 | 0.412 | 0.444
NCI-H1355 | 1.22 | 1.3 | 1.15 | 1.24 | 1.26 | 1.26 | 1.13 | 1.32 | 1.17 | 1.15 | 0.336 | 0.329 | 0.323 | 0.307 | 0.309 | 0.456 | 0.401 | 0.378 | 0.351 | 0.38
NCI-H1437 | 0.54 | 0.546 | 0.503 | 0.405 | 0.489 | 0.515 | 0.542 | 0.55 | 0.446 | 0.589 | 1.06 | 0.903 | 0.905 | 0.65 | 0.41 | 0.296 | 0.258 | 0.294 | 0.264 | 0.259
NCI-H1563 | 0.811 | 0.86 | 0.859 | 0.992 | 0.863 | 0.908 | 0.827 | 0.846 | 0.876 | 0.763 | 0.776 | 0.81 | 0.76 | 0.704 | 0.716 | 0.622 | 0.706 | 0.643 | 0.601 | 0.616
NCI-H1650 | 0.199 | 0.209 | 0.199 | 0.192 | 0.225 | 0.209 | 0.208 | 0.191 | 0.195 | 0.22 |  | 0.532 | 0.43 | 0.494 | 0.411 |  | 0.446 | 0.333 | 0.273 | 0.349
NCI-H1651 | 0.955 | 1.05 | 1.03 | 0.745 | 0.878 | 0.926 | 0.942 | 0.934 | 0.889 | 0.857 | 0.682 | 0.664 | 0.666 | 0.449 | 0.6 | 0.345 | 0.351 | 0.387 | 0.26 | 0.317
